“Also recorded” adds a separate entry of the source.
Assays:
[1] = highest non-severely toxic dose (HNSTD) in tumor-bearing SCID mice; format: in vivo, mouse; conditions: i.v. dosed once per week, tumor-bearing SCID mice (data not shown)
Protocol: The combination of Compound 1 and bevacizumab was also examined in the NCI-H1975 model using higher doses of each test article. […] The HNSTD was determined based on prior studies and was defined as the dose and dosing schedule at which no morbidity was observed, and at which no individual animal lost ≧20% of its body weight and no treatment group lost ≧10% average body weight over the course of the study.

[2] = test system: human NSCLC cell line NCI-H1975; experiment: SCID mouse xenograft model, in vivo growth of NCI-H1975 tumors
Protocol: (§1) The human non-small cell lung cancer (NSCLC) cell line, NCI-H1975 (ATCC #CRL-5908) was obtained from the American Type Culture Collection (ATCC; Manassas, Va., USA). The human multiple myeloma cell line, RPMI 8226 (ATCC #CCL-155) was also obtained from the ATCC.
(§2) NCI-H1975 cells were cultured in growth media prepared from 50% Dulbecco's Modified Eagle Medium (high glucose), 50% RPMI Media 1640 (4.5 g/L glucose), 10% fetal bovine serum (FBS), 10 mM HEPES, 1% 100× Penicillin-Streptomycin, 1% 100× sodium pyruvate and 1% 100× MEM non-essential amino acids. RPMI 8226 cells were cultured in growth media prepared with RPMI Media 1640 (4.5 g/L glucose), 10% FBS, 10 mM HEPES, 1% 100× Penicillin-Streptomycin, 1% 100× sodium pyruvate and 1% 100× MEM non-essential amino acids. FBS was obtained from ATCC and all other reagents were obtained from Invitrogen Corp. (Carlsbad, Calif., USA). Cells that had been cryopreserved in liquid nitrogen were rapidly thawed at 37° C. and transferred to a tissue culture flask containing growth media and then incubated at 37° C. in a 5% CO2 incubator. To expand the RPMI 8226 cell line, growth media was changed every 2-3 days and cultures were passaged 1:3 to 1:5 every 3-5 days. When the a 175 cm^2 flask reached approximately 20-40×10(6) total cells, the above passaging process was repeated until sufficient cells had been obtained for implantation into mice. To expand the NCI-H1975 cell line, cultures were split 1:5 every 3 days when 175 cm^2 flasks became 85% confluent. Cultures were passaged by washing with 10 mL of room temperature phosphate buffered saline (PBS) and then disassociating cells by adding 5 mL 1× trypsin-EDTA and incubating at 37° C. until the cells detached from the surface of the flask. To inactivate the trypsin, 5 mL of growth media was added and then the contents of the flask were centrifuged to pellet the cells. The supernatant was aspirated and the cell pellet was resuspended in 10 mL of growth media and the cell number determined using a hemocytometer. Cells were seeded into 175 cm^2 flasks containing 50 mL of growth media and incubated at 37° C. in a 5% CO2 incubator. When the flasks reached 85% confluence, the above passaging process was repeated until sufficient cells had been obtained for implantation into mice.
(§3) Six to eight week old, female CB17/Icr-Prkdc^scid/Crl (SCID) mice were obtained from Charles River Laboratories (Wilmington, Mass., USA) Animals were housed 4-5/cage in micro-isolators, with a 12 hr/12 hr light/dark cycle, acclimated for at least 1 week prior to use and fed normal laboratory chow ad libitum. Animals were between seven to thirteen weeks of age at implantation. To implant NCI-H1975 or RPMI 8226 tumor cells into SCID mice, cells were collected as described above, washed in PBS and resusupended at a concentration of 5×10(7) cells/mL in 50% non-supplemented medium and 50% Matrigel Basement Membrane Matrix (#354234; BD Biosciences; Bedford, Mass., USA). Using a 27 gauge needle and 1 cc syringe, 5×10(6) […] or RPMI 8226 cells in 0.1 mL of a cell suspension were injected subcutaneously into the flanks of SCID mice.
(§4) For the NCI-H1975 model, tumors were then permitted to develop in vivo until the majority reached approximately 100-225 mm^3 in tumor volume, which required ˜1½ weeks. For the RPMI 8226 model, tumors were permitted to develop in vivo until the majority reached approximately 80-200 mm^3 in tumor volume, which required ˜3½ weeks. […] Tumor volumes (V) were calculated by caliper measurement of the width (W), length (L) and thickness (T) of tumors using the following formula: V=0.5236×(L×W×T). […]

[3] = test system: human NSCLC cell line HCC827; experiment: SCID mouse xenograft study, in vivo growth of HCC827 tumors; conditions: 4 doses (FIG. 8)
Protocol: Tumor-bearing animals (8 mice/group) were injected 1 time per week for a total of 4 doses (arrowheads) with vehicle alone, Compound 1 alone, bevacizumab alone or a combination of Compound 1 and bevacizumab dosed concurrently. Compound 1 was i.v. injected and bevacizumab was i.p. injected. The average tumor volumes for each group (error bars represent SEM) were determined every 2-4 days.

[4] = test system: human multiple myeloma cell line RPMI 8226; experiment: SCID mouse xenograft model, in vivo growth of RPMI 8226 tumors
Protocol: as §1, §2, §3, §4

[5] = test system: RERF-LC-AI^IVP human lung tumor cells; experiment: nude mouse xenograft model, in vivo growth rate of RERF-LC-AI^IVP tumors; conditions: 5 times per week, 15 doses, nude mice
Protocol: The human squamous non-small cell lung cancer cell line, RERF-LC-AI (RCB0444; S. Kyoizumi, et al., Cancer. Res. 45:3274-3281, 1985), was obtained from the Riken Cell Bank (Tsukuba, Ibaraki, Japan). The cell line was cultured in growth media prepared from 50% Dulbecco's Modified Eagle Medium (high glucose), 50% RPMI Media 1640, 10% fetal bovine serum (FBS), 1% 100× L-glutamine, 1% 100× penicillin-streptomycin, 1% 100× sodium pyruvate and 1% 100× MEM non-essential amino acids. FBS was obtained from American Type Culture Collection (Manassas, Va., USA) and all other reagents were obtained from Invitrogen Corp. (Carlsbad, Calif., USA). […]
The growth media was replaced every 2-3 days until the flask became 90% confluent, typically in 5-7 days. […] The supernatant was aspirated and the cell pellet was resuspended in 10 ml of growth media and the cell number determined using a hemocytometer. […]
Seven to eight week old, female Crl:CD-1-nuBR (nude) mice were obtained from Charles River Laboratories (Wilmington, Mass., USA) Animals were housed 4-5/cage in micro-isolators, with a 12 hr/12 hr light/dark cycle, acclimated for at least 1 week prior to use and fed normal laboratory chow ad libitum. […] Tumor volumes (V) were calculated by caliper measurement of the width (W), length (L) and thickness (T) of tumors using the following formula: V=0.5236×(L×W×T). […]

[6] = body weight changes in nude mouse RERF-LC-AI^IVP xenograft study; format: in vivo; conditions: 200 mg/kg body weight i.p., 5 times per week, 15 doses, nude mice
Protocol: Seven to eight week old, female Crl:CD-1-nuBR (nude) mice were obtained from Charles River Laboratories (Wilmington, Mass., USA) Animals were housed 4-5/cage in micro-isolators, with a 12 hr/12 hr light/dark cycle, acclimated for at least 1 week prior to use and fed normal laboratory chow ad libitum. Studies were conducted on animals between 8 and 12 weeks of age at implantation. To implant RERF-LC-AI tumor cells into nude mice, the cells were trypsinized as above, washed in PBS and resuspended at a concentration of 50×10(6) cells/ml in 50% non-supplemented RPMI Media 1640 and 50% Matrigel Basement Membrane Matrix (#354234; BD Biosciences; Bedford, Mass., USA). Using a 27 gauge needle and 1 cc syringe, 0.1 ml of the cell suspension was injected subcutaneously into the flank of each nude mouse. Tumor volumes (V) were calculated by caliper measurement of the width (W), length (L) and thickness (T) of tumors using the following formula: V=0.5236×(L×W×T).
The Hsp90 inhibitor, 17-allylamino-17-demethoxygeldanamycin (17-AAG), was employed as a positive control (Albany Molecular Research, Albany, N.Y., USA). Stock solutions of test articles were prepared by dissolving the appropriate amounts of each compound in dimethyl sulfoxide (DMSO) by sonication in an ultrasonic water bath. Stock solutions were prepared weekly, stored at −20° C. and diluted fresh each day for dosing. […]

CC(C)c1cc(-c2nnc(O)n2-c2ccc3c(ccn3C)c2)c(O)cc1O [Compound 1, 3-(2,4-DIHYDROXY-5- ISOPROPYL-PHENYL)-4-(1- METHYL-INDOL-5-YL)-5- HYDROXY-[1,2,4] TRIAZOLE]
highest non-severely toxic dose (HNSTD) [1]: 150 mg/kg
% T/C value ([2]; 50 mg/kg i.v. once per week (3 doses), day 29, SCID mice): 39%
tumor growth ([2]; 50 mg/kg i.v. once per week, 3 doses (FIG. 3)): moderately inhibited tumor growth
% T/C value ([2]; 150 mg/kg i.v. once per week (4 doses), day 38, SCID mice): 3%
tumor growth ([2]; 150 mg/kg i.v. once per week, 4 doses (FIG. 4)): substantially inhibited tumor growth
tumor growth ([3]; 150 mg/kg i.v. once per week): moderately inhibited tumor growth
tumor growth ([4]; 12.5 mg/kg i.v. 5 times per week, 15 doses (FIG. 5)): moderately inhibited tumor growth
% T/C value ([4]; 12.5 mg/kg i.v. five times per week (15 doses), day 49, SCID mice): 63%
% T/C value ([4]; second study, single dose 12.5 mg/kg, over three days (data not shown)): 83%

C=CCNC1=C2C[C@@H](C)C[C@H](OC)[C@H](O)[C@@H](C)/C=C(\C)[C@H](OC(N)=O)[C@@H](OC)/C=C\C=C(/C)C(=O)NC(=CC1=O)C2=O [Compound 17-AAG, 17-allylamino-17-demethoxygeldanamycin, reference compound]
tumor growth (growth rate of tumor cells) ([5]; 75 mg/kg body weight i.p.): inhibited tumor growth; also recorded: decreased the growth rate

CCc1cc(-c2nnc(S)n2-c2ccc(OC)c3c2ccn3C(C)C)c(O)cc1O [Compound 26, 3-(2,4-DIHYDROXY-5-ETHYL- PHENYL)-4-(1-ISOPROPYL-7- METHOXY-INDOL-4-YL)-5- MERCAPTO-[1,2,4] TRIAZOLE]
tumor growth (growth rate of tumor cells) ([5]; 200 mg/kg body weight i.p.): inhibited tumor growth; also recorded: decreased the growth rate
overt toxicity (effect on body weights) [6]: not overtly toxic; also recorded: not associated with overt toxicity

bevacizumab: Humanized monoclonal antibody that blocks VEGF; VEGF inhibitor purchased from Genentech [reference compound]
% T/C value ([2]; 2 mg/kg i.p. once per week (3 doses), day 29, SCID mice): 18%
tumor growth ([2]; 2 mg/kg i.p. once per week, 3 doses (FIG. 3)): moderately inhibited tumor growth
% T/C value ([2]; 10 mg/kg i.p. once per week (4 doses), day 38, SCID mice): 17%
tumor growth ([2]; 10 mg/kg i.p. once per week, 4 doses (FIG. 4)): moderately inhibited tumor growth
tumor growth ([3]; 10 mg/kg i.p. once per week): moderately inhibited tumor growth
tumor growth ([4]; 0.3 mg/kg i.p. 2 times a week, 6 doses (FIG. 5)): moderately inhibited tumor growth
% T/C value ([4]; 0.3 mg/kg i.p. twice per week (6 doses), day 49, SCID mice): 26%
% T/C value ([4]; second study, single dose 1 mg/kg, over three days (data not shown)): 42%
